# US12239134B2, “Plant antimicrobial compositions including an emulsifier and/or ozone and methods of use” (Arizona Board of Regents on Behalf of The University of …, priority 2018, dated 2025)
# Tested on: Salmonella Newport
# Test: Biofilm formation on food contact surface coupons, direct plating
# Format: cell-based, Salmonella enterica
# Settings: two-minute treatment
# Description: A protocol based on direct plating was also evaluated for testing the biofilm formation by Salmonella or L. monocytogenes. Biofilms were formed on three different food contact surface coupons (HDPE, Buna-N rubber, and 316 stainless steel) for up to 3 days in 35 mm mini-petri dishes. Biofilms were formed using a 1:10 diluted TSB solution (10 mL) with either S. enterica or L. monocytogenes inoculum (100 μL). The diluted TSB was changed every 16-18 hours with new 1:10 diluted TSB (10 mL). Coupons were removed for sampling and enumeration of strongly attached bacteria at three different time points (Day 0, 1, and 3). The coupons were rinsed with deionized water five times to remove planktonic cells. Then the coupons were immersed in 10 mL of BPW. The coupons were sonicated for 2 minutes using different settings (Tables 11 and 12) for each organism. After sonication, the solution was serially diluted and plated on Tryptic Soy Agar (TSA). Plates were incubated at 37° C. for 24-48 hours. The colonies were counted and the colony forming units were determined for the various sonication settings, so that the appropriate setting with the most recovery could be determined. […] These settings were used in further experiments to recover the bacterial cells from coupons during sampling and enumeration (by spread plating) of the bacteria in biofilms.
# The reduction in bacterial biofilm formation was also tested using a direct plating method. Biofilms were formed on six different food contact surface coupons (HDPE, Buna-N rubber, PC, PVC, and stainless steel 304 and 316) in separate 35 mm mini-petri dishes and evaluated at three different time points (Day 0, 1, and 3). Biofilms were formed using a 1:10 diluted TSB solution (10 mL) with either S. enterica or L. monocytogenes inoculum (100 μL). The coupons were also washed and treated with antimicrobial solutions containing the plant-based emulsifier and the essential oil/plant extracts at various concentrations. The diluted TSB was changed every 16-18 hours with new 1:10 diluted TSB (10 mL). The coupons were rinsed in the antimicrobial solution before adding them to the petri dishes containing the fresh, diluted TSB. After their specific time points, coupons were removed aseptically using sterile forceps from the petri dish. The coupons were rinsed by submerging in 25 mL of sterile deionized H2O and swirled five times to remove planktonic cells. After rinsing, they were placed into a new petri dish immersed in 10 mL of BPW. The coupons were sonicated for 2 minutes on ice using different settings for each organism. After sonication, the sonicated solution was serially diluted using 0.1% peptone water and spread plated on TSA in duplicate. Plates were incubated overnight at 37° C. for 24-48 hours, after which, the colonies were counted, to establish the efficacy of the antimicrobial solutions (Tables 17-25).
smiles,measurement,setting,value
"CC(C)=CCCC(C)=CC=O [Citral, citral]",Survivors of Salmonella Newport on food contact surface,"0.5% with 0.0001% saponin microemulsion, Day 0, 304 SS",4.32 Log CFU/mL
same,Survivors of Salmonella Newport on food contact surface,"0.5% with 0.0001% saponin microemulsion, Day 0, 316 SS",4.36 Log CFU/mL
same,Survivors of Salmonella Newport on food contact surface,"0.5% with 0.0001% saponin microemulsion, Day 0, Buna N",4.06 Log CFU/mL
same,Survivors of Salmonella Newport on food contact surface,"0.5% with 0.0001% saponin microemulsion, Day 0, HDPE",3.44 Log CFU/mL
same,Survivors of Salmonella Newport on food contact surface,"0.5% with 0.0001% saponin microemulsion, Day 0, PC",3.25 Log CFU/mL
same,Survivors of Salmonella Newport on food contact surface,"0.5% with 0.0001% saponin microemulsion, Day 0, PVC",3.49 Log CFU/mL
same,Survivors of Salmonella Newport on food contact surface,"0.5% with 0.0001% saponin microemulsion, Day 1, 304 SS",4.52 Log CFU/mL
same,Survivors of Salmonella Newport on food contact surface,"0.5% with 0.0001% saponin microemulsion, Day 1, 316 SS",4.52 Log CFU/mL
same,Survivors of Salmonella Newport on food contact surface,"0.5% with 0.0001% saponin microemulsion, Day 1, Buna N",4.34 Log CFU/mL
same,Survivors of Salmonella Newport on food contact surface,"0.5% with 0.0001% saponin microemulsion, Day 1, HDPE",4.24 Log CFU/mL
same,Survivors of Salmonella Newport on food contact surface,"0.5% with 0.0001% saponin microemulsion, Day 1, PC",4.20 Log CFU/mL
same,Survivors of Salmonella Newport on food contact surface,"0.5% with 0.0001% saponin microemulsion, Day 1, PVC",4.27 Log CFU/mL
same,Survivors of Salmonella Newport on food contact surface,"0.5% with 0.0001% saponin microemulsion, Day 3, 304 SS",4.20 Log CFU/mL
same,Survivors of Salmonella Newport on food contact surface,"0.5% with 0.0001% saponin microemulsion, Day 3, 316 SS",4.36 Log CFU/mL
same,Survivors of Salmonella Newport on food contact surface,"0.5% with 0.0001% saponin microemulsion, Day 3, Buna N",4.20 Log CFU/mL
same,Survivors of Salmonella Newport on food contact surface,"0.5% with 0.0001% saponin microemulsion, Day 3, HDPE",3.56 Log CFU/mL
same,Survivors of Salmonella Newport on food contact surface,"0.5% with 0.0001% saponin microemulsion, Day 3, PC",3.52 Log CFU/mL
same,Survivors of Salmonella Newport on food contact surface,"0.5% with 0.0001% saponin microemulsion, Day 3, PVC",4.27 Log CFU/mL
same,Survivors of Salmonella Newport on food contact surface,"0.7% with 0.0001% saponin microemulsion, Day 0, 304 SS",4.23 Log CFU/mL
same,Survivors of Salmonella Newport on food contact surface,"0.7% with 0.0001% saponin microemulsion, Day 0, 316 SS",3.59 Log CFU/mL
same,Survivors of Salmonella Newport on food contact surface,"0.7% with 0.0001% saponin microemulsion, Day 0, Buna N",4.52 Log CFU/mL
same,Survivors of Salmonella Newport on food contact surface,"0.7% with 0.0001% saponin microemulsion, Day 0, HDPE",2.71 Log CFU/mL
same,Survivors of Salmonella Newport on food contact surface,"0.7% with 0.0001% saponin microemulsion, Day 0, PC",3.59 Log CFU/mL
same,Survivors of Salmonella Newport on food contact surface,"0.7% with 0.0001% saponin microemulsion, Day 0, PVC",3.24 Log CFU/mL
same,Survivors of Salmonella Newport on food contact surface,"0.7% with 0.0001% saponin microemulsion, Day 1, 304 SS",3.36 Log CFU/mL
same,Survivors of Salmonella Newport on food contact surface,"0.7% with 0.0001% saponin microemulsion, Day 1, 316 SS",3.24 Log CFU/mL
same,Survivors of Salmonella Newport on food contact surface,"0.7% with 0.0001% saponin microemulsion, Day 1, Buna N",3.52 Log CFU/mL
same,Survivors of Salmonella Newport on food contact surface,"0.7% with 0.0001% saponin microemulsion, Day 1, HDPE",<1 Log CFU/mL
same,Survivors of Salmonella Newport on food contact surface,"0.7% with 0.0001% saponin microemulsion, Day 1, PC",<1 Log CFU/mL
same,Survivors of Salmonella Newport on food contact surface,"0.7% with 0.0001% saponin microemulsion, Day 1, PVC",<1 Log CFU/mL
same,Survivors of Salmonella Newport on food contact surface,"0.7% with 0.0001% saponin microemulsion, Day 3, 304 SS",<1 Log CFU/mL
same,Survivors of Salmonella Newport on food contact surface,"0.7% with 0.0001% saponin microemulsion, Day 3, 316 SS",<1 Log CFU/mL
same,Survivors of Salmonella Newport on food contact surface,"0.7% with 0.0001% saponin microemulsion, Day 3, Buna N",<1 Log CFU/mL
same,Survivors of Salmonella Newport on food contact surface,"0.7% with 0.0001% saponin microemulsion, Day 3, HDPE",<1 Log CFU/mL
same,Survivors of Salmonella Newport on food contact surface,"0.7% with 0.0001% saponin microemulsion, Day 3, PC",<1 Log CFU/mL
same,Survivors of Salmonella Newport on food contact surface,"0.7% with 0.0001% saponin microemulsion, Day 3, PVC",<1 Log CFU/mL
same,Survivors of Salmonella Newport on food contact surface,"1% with 0.0001% saponin microemulsion, Day 0, 304 SS",3.91 Log CFU/mL
same,Survivors of Salmonella Newport on food contact surface,"1% with 0.0001% saponin microemulsion, Day 0, 316 SS",4.13 Log CFU/mL
same,Survivors of Salmonella Newport on food contact surface,"1% with 0.0001% saponin microemulsion, Day 0, Buna N",3.26 Log CFU/mL
same,Survivors of Salmonella Newport on food contact surface,"1% with 0.0001% saponin microemulsion, Day 0, HDPE",4.45 Log CFU/mL
same,Survivors of Salmonella Newport on food contact surface,"1% with 0.0001% saponin microemulsion, Day 0, PC",4.20 Log CFU/mL
same,Survivors of Salmonella Newport on food contact surface,"1% with 0.0001% saponin microemulsion, Day 0, PVC",3.89 Log CFU/mL
same,Survivors of Salmonella Newport on food contact surface,"1% with 0.0001% saponin microemulsion, Day 1, 304 SS",<1 Log CFU/mL
same,Survivors of Salmonella Newport on food contact surface,"1% with 0.0001% saponin microemulsion, Day 1, 316 SS",<1 Log CFU/mL
same,Survivors of Salmonella Newport on food contact surface,"1% with 0.0001% saponin microemulsion, Day 1, Buna N",<1 Log CFU/mL
same,Survivors of Salmonella Newport on food contact surface,"1% with 0.0001% saponin microemulsion, Day 1, HDPE",<1 Log CFU/mL
same,Survivors of Salmonella Newport on food contact surface,"1% with 0.0001% saponin microemulsion, Day 1, PC",<1 Log CFU/mL
same,Survivors of Salmonella Newport on food contact surface,"1% with 0.0001% saponin microemulsion, Day 1, PVC",<1 Log CFU/mL
same,Survivors of Salmonella Newport on food contact surface,"1% with 0.0001% saponin microemulsion, Day 3, 304 SS",<1 Log CFU/mL
same,Survivors of Salmonella Newport on food contact surface,"1% with 0.0001% saponin microemulsion, Day 3, 316 SS",<1 Log CFU/mL
same,Survivors of Salmonella Newport on food contact surface,"1% with 0.0001% saponin microemulsion, Day 3, Buna N",<1 Log CFU/mL
same,Survivors of Salmonella Newport on food contact surface,"1% with 0.0001% saponin microemulsion, Day 3, HDPE",<1 Log CFU/mL
same,Survivors of Salmonella Newport on food contact surface,"1% with 0.0001% saponin microemulsion, Day 3, PC",<1 Log CFU/mL
same,Survivors of Salmonella Newport on food contact surface,"1% with 0.0001% saponin microemulsion, Day 3, PVC",<1 Log CFU/mL
